Tested on: environmental isolates
Experiment: Effect of Polymyxin B, Acriflavine HCl and Ceftazidime on environmental isolates
Type: cell-based
Conditions: used together in the Selective medium
Procedure: Nineteen non-Listeria organisms isolated from environmental sponges from meat and dairy manufacturing facilities were inoculated separately into Tryptic Soy broth (TSB, Difco) and incubated for 24 h at 30° C. The isolates were screened for growth in Selective and Non-Selective media by monitoring absorbance via a spectrophotometer. 900 μl of test media and either 100 μl of culture or Butterfield's Buffer (International BioProducts) were added to a cuvette and incubated at 30° C. Absorbance readings were taken at 660 nm on a spectrophotometer (Shimadzu UV160U) at To, 2 h, 4 h, and 6 h and compared to the corresponding blank cuvette with buffer. Growth was scored by absorbance readings.
The Non-Selective medium consisted of Universal Preenrichment Broth (UPB, Difco) with 0.4% Yeast Extract (YE, Difco). The Selective medium consisted of Universal Preenrichment Broth (UPB, Difco) with 0.4% Yeast Extract (YE, Difco), 0.001% Polymymin B, 0.0005% Acriflavine HCl, and 0.002% Ceftazidime.
Several environmental organisms screened via spectrophotometer were selected to test in mixed culture with Listeria. Environmental isolates were inoculated separately into TSB and incubated for 24 h at 30° C. The growth level was determined by serial dilutions plated on Tryptic Soy agar (TSA, Difco) and incubated at 30° C. for 24 h. Based on the cell counts, the culture was diluted in Butterfield's Buffer and a volume of the diluted culture targeting an initial cell count of 1000 CFU/mL was inoculated into the test media.
30 mL of Non-Selective or Selective medium was added to 10 ml of Butterfield's Buffer to simulate the addition of media to environment sponge. A Non-Selective and Selective medium was inoculated with Listeria culture alone, environmental isolate alone, and Listeria and environment isolate combined. The media were incubated in a water bath at 30° C. Serial dilutions of inoculated media were collected at To and 8 h and plated on Oxford Media Base and a differential media particular to the environmental isolate being tested (see Table 2). […]

Compound | Effectiveness as selective agents against environmental isolates (in words)
CC(C)(O/N=C(\C(=O)N[C@@H]1C(=O)N2C(C(=O)[O-])=C(C[n+]3ccccc3)CS[C@H]12)c1csc(N)n1)C(=O)O [Ceftazidime] | effective selective agents against many environmental isolates
Acriflavine HCl | effective selective agents against many environmental isolates
Polymyxin B | effective selective agents against many environmental isolates

— patent US20060286625A1, “Rapid enrichment for Listeria” (Kraft Foods Holdings, Inc., priority 2005, published 2006)
